{"source": "PubChem BioAssay AID1645848", "details": "buffer; pH 7.4; 6.0 h; 150.0 µM", "data": [{"smiles": "CC(=O)c1c(C)[nH]c(C(=O)Nc2cccc([S+](=O)([O-])Nc3c(C)cccc3C)c2)c1C", "values": [{"measurement": "solubility kinetic", "value": "< 1", "unit": "µg/mL"}]}, {"smiles": "O=[N+]([O-])c1cccc(CNc2ccc(S(=O)(=O)Nc3nccs3)cc2)c1O", "values": [{"measurement": "solubility kinetic", "value": 10.3, "unit": "µg/mL"}]}, {"smiles": "Cl.N=c1c2c(n(Cc3ccccc3)c3c1CCC3)CCC2", "values": [{"measurement": "solubility kinetic", "value": "> 39", "unit": "µg/mL"}]}, {"smiles": "CCCCCn1cc2c(c1-c1ccc(Br)cc1)c(=O)n(C)c(=O)n2C", "values": [{"measurement": "solubility kinetic", "value": "< 1", "unit": "µg/mL"}]}, {"smiles": "O=C1CCCC2=C1C(c1[nH]ncc1Cl)N=C(Nc1nc3c(Br)cccc3o1)N2", "note": "(stereo not given)", "values": [{"measurement": "solubility kinetic", "value": "< 1", "unit": "µg/mL"}]}, {"smiles": "CC(C)(C)c1ccc(-c2nc(SCCCOc3ccccc3)n3[nH]c(=O)cc3n2)cc1", "values": [{"measurement": "solubility kinetic", "value": "< 1", "unit": "µg/mL"}]}, {"smiles": "Cc1ccc(N(C)S(=O)(=O)c2ccc(-c3cnc(C4CC4)o3)cc2)cc1", "values": [{"measurement": "solubility kinetic", "value": "< 1", "unit": "µg/mL"}]}, {"smiles": "Cc1ccc2[nH]c(-c3ccccc3)cc(=O)c2c1", "values": [{"measurement": "solubility kinetic", "value": 3.41, "unit": "µg/mL"}]}, {"smiles": "Cc1ccc(S(=O)(=O)Nc2cc(C(=O)Nc3nc(-c4ccccc4)cs3)ccn2)cc1", "values": [{"measurement": "solubility kinetic", "value": "< 1", "unit": "µg/mL"}]}, {"smiles": "COc1c2c(c3c(c1CCC(=O)O)OC(C)(C)C=C3)OC(C)(C)C=C2", "values": [{"measurement": "solubility kinetic", "value": "> 51", "unit": "µg/mL"}]}, {"smiles": "O=C(Nc1ccc(N2CCC(N3CCCCC3)CC2)c(C(=O)O)c1)c1ccc(Br)cc1", "values": [{"measurement": "solubility kinetic", "value": 34, "unit": "µg/mL"}]}, {"smiles": "O=C(Nc1ccc(F)c(C(F)(F)F)c1)Nc1nnc(-c2ccncc2)s1", "values": [{"measurement": "solubility kinetic", "value": "< 1", "unit": "µg/mL"}]}, {"smiles": "CC(=O)NCCNC(=O)c1ccc(-c2ncc3cnc(-c4cccc(F)c4)cn23)cc1", "values": [{"measurement": "solubility kinetic", "value": "> 92", "unit": "µg/mL"}]}, {"smiles": "COc1cccc(-c2nc3cc(NC(=O)c4ccc(C)c([N+](=O)[O-])c4)ccc3o2)c1", "values": [{"measurement": "solubility kinetic", "value": "< 1", "unit": "µg/mL"}]}, {"smiles": "Oc1ccc(CNc2ccc(C(F)(F)F)cc2F)c2cccnc12", "values": [{"measurement": "solubility kinetic", "value": 6.45, "unit": "µg/mL"}]}, {"smiles": "CCc1ccc(C2N=C(N)Nc3nc4ccccc4n32)cc1", "note": "(stereo not given)", "values": [{"measurement": "solubility kinetic", "value": 6.87, "unit": "µg/mL"}]}, {"smiles": "CCOc1ccc(CCNC(=O)c2cc3ncccc3n2Cc2cccc(C)n2)cc1OCC", "values": [{"measurement": "solubility kinetic", "value": "> 68", "unit": "µg/mL"}]}, {"smiles": "Cc1nc2ccc(C(=O)N3CCC4(CC3)CC(=O)c3c(cnn3C(C)C)C4)cc2[nH]1", "values": [{"measurement": "solubility kinetic", "value": "> 60", "unit": "µg/mL"}]}, {"smiles": "Cc1cc(C)c(C(=O)Nc2cccc([S+](=O)([O-])N3CCCC3)c2)[nH]1", "values": [{"measurement": "solubility kinetic", "value": 11.5, "unit": "µg/mL"}]}, {"smiles": "O=S(=O)(Nc1ccc(-c2cccnc2)c2cccnc12)c1cccc(C(F)(F)F)c1", "values": [{"measurement": "solubility kinetic", "value": "< 1", "unit": "µg/mL"}]}, {"smiles": "O=S(=O)(Nc1nccs1)c1ccc(NCc2ccccc2)cc1", "values": [{"measurement": "solubility kinetic", "value": 31.9, "unit": "µg/mL"}]}, {"smiles": "CCc1ccc(-n2nc(C)c3c2NC(=O)CSC3c2ccccc2C)cc1", "note": "(stereo not given)", "values": [{"measurement": "solubility kinetic", "value": 1.11, "unit": "µg/mL"}]}, {"smiles": "Cc1cnc(-c2ccccc2C2CC2)nc1NCc1ccc(-c2cccnc2)cc1", "values": [{"measurement": "solubility kinetic", "value": "< 1", "unit": "µg/mL"}]}, {"smiles": "Cc1ccc(-c2cc(C(=O)Nc3ccc(-n4cccn4)cc3)c3ccccc3n2)cc1C", "values": [{"measurement": "solubility kinetic", "value": "< 1", "unit": "µg/mL"}]}, {"smiles": "Cc1ccc(S(=O)(=O)Nc2ccc(C)cc2C(=O)Nc2nc(-c3ccccc3)cs2)cc1", "values": [{"measurement": "solubility kinetic", "value": "< 1", "unit": "µg/mL"}]}, {"smiles": "Cc1ccc(S(=O)(=O)NCC(=O)Nc2nc(-c3ccccc3)cs2)cc1", "values": [{"measurement": "solubility kinetic", "value": "< 1", "unit": "µg/mL"}]}, {"smiles": "COc1ccc(NS(=O)(=O)c2ccc(C)c(C(=O)Nc3ccc4oc(C)nc4c3)c2)cc1", "values": [{"measurement": "solubility kinetic", "value": 8.77, "unit": "µg/mL"}]}, {"smiles": "CNc1sc(-c2cccc3ccccc23)nc1C#N", "values": [{"measurement": "solubility kinetic", "value": "< 1", "unit": "µg/mL"}]}, {"smiles": "NC(=O)C1CCN(c2nc(-c3ccc(F)cc3)cs2)CC1", "values": [{"measurement": "solubility kinetic", "value": "> 45", "unit": "µg/mL"}]}, {"smiles": "O=C(Nc1ccc(Cl)cc1)C(NS(=O)(=O)c1cccs1)c1ccccc1", "note": "(stereo not given)", "values": [{"measurement": "solubility kinetic", "value": "< 1", "unit": "µg/mL"}]}, {"smiles": "COc1ccc(CN2CCNc3cc(Nc4ccccc4)ncc3C2)cc1", "values": [{"measurement": "solubility kinetic", "value": 45.4, "unit": "µg/mL"}]}, {"smiles": "Fc1cc(Nc2nc(-c3ccncc3)nc3ccccc23)ccc1N1CCCC1", "values": [{"measurement": "solubility kinetic", "value": "< 1", "unit": "µg/mL"}]}, {"smiles": "O=[S+]([O-])(Nc1ccc2ccccc2c1)c1ccc(NCc2ccc(Cl)cc2O)cc1", "values": [{"measurement": "solubility kinetic", "value": "< 1", "unit": "µg/mL"}]}, {"smiles": "Cc1nn2c(c1-c1ccccc1-c1ccccc1)N(Cc1ccc(C(=O)O)s1)CCC2", "values": [{"measurement": "solubility kinetic", "value": "> 63", "unit": "µg/mL"}]}, {"smiles": "Fc1ccc(Nc2nc(-c3ccncc3)cc3ccccc23)cc1F", "values": [{"measurement": "solubility kinetic", "value": 1.26, "unit": "µg/mL"}]}, {"smiles": "CCCCOc1ccc(CNC(=O)c2cc3n(n2)CCCN(Cc2ccc(C)cc2)C3=O)cc1", "values": [{"measurement": "solubility kinetic", "value": "< 1", "unit": "µg/mL"}]}, {"smiles": "CC(C)(C)c1ccc(C(=O)Nc2cn3cc(-n4ccnc4)ccc3n2)cc1", "values": [{"measurement": "solubility kinetic", "value": "< 1", "unit": "µg/mL"}]}, {"smiles": "COc1cccc(CNc2ccc(S(=O)(=O)Nc3ncc(-c4ccccc4)s3)cc2)c1O", "values": [{"measurement": "solubility kinetic", "value": 6.07, "unit": "µg/mL"}]}, {"smiles": "CN(C)CCNC(=O)c1nc(-c2ccccc2)cc2[nH]ccc12", "values": [{"measurement": "solubility kinetic", "value": 28.3, "unit": "µg/mL"}]}, {"smiles": "CNS(=O)(=O)c1cc(-c2nn3c(C)nnc3c3ccccc23)ccc1C", "values": [{"measurement": "solubility kinetic", "value": 4.84, "unit": "µg/mL"}]}, {"smiles": "C#CCNC(=O)c1nc(-c2ccc([S+](C)(=O)[O-])cc2)c2ccccn12", "values": [{"measurement": "solubility kinetic", "value": 1.27, "unit": "µg/mL"}]}, {"smiles": "Cc1noc(C)c1-c1ccc2ncnc(N3CCC(C(=O)O)CC3)c2c1", "values": [{"measurement": "solubility kinetic", "value": "> 52", "unit": "µg/mL"}]}, {"smiles": "CN1CCN(C(=O)Cc2c[nH]c3ncc(-c4ccccc4Oc4ccccc4)cc23)CC1", "values": [{"measurement": "solubility kinetic", "value": "> 42", "unit": "µg/mL"}]}, {"smiles": "Fc1ccc(Nc2nc(-c3ccccc3)cc(-c3ccncc3)n2)cc1F", "values": [{"measurement": "solubility kinetic", "value": "< 1", "unit": "µg/mL"}]}, {"smiles": "NC(=O)C1CCN(c2nccc(-c3ccc(Br)cc3)n2)CC1", "values": [{"measurement": "solubility kinetic", "value": 5.39, "unit": "µg/mL"}]}, {"smiles": "COc1cc2c(cc1NC(=O)COc1ccc(Cl)cc1)oc1ccccc12", "values": [{"measurement": "solubility kinetic", "value": "< 1", "unit": "µg/mL"}]}, {"smiles": "N#Cc1nc(-c2cccc3ccccc23)oc1NCc1ccccc1", "values": [{"measurement": "solubility kinetic", "value": "< 1", "unit": "µg/mL"}]}, {"smiles": "Nc1cc2nc3ccccc3oc-2cc1=O", "values": [{"measurement": "solubility kinetic", "value": 17.9, "unit": "µg/mL"}]}, {"smiles": "Cc1ccc(C(=O)Nc2cccc(C(F)(F)F)c2)cc1Nc1nc(-c2cccnc2)nc2c1cnn2C", "values": [{"measurement": "solubility kinetic", "value": "< 1", "unit": "µg/mL"}]}, {"smiles": "NC(=O)C1CCN(c2nc(-c3cccc4sc5ccccc5c34)cs2)CC1", "values": [{"measurement": "solubility kinetic", "value": "< 1", "unit": "µg/mL"}]}]}
